Common to all, as to test: ≥ marks a high value that may be exact or a test limit, other limits are often not marked, values filed in µg/mL are converted to µM
The subject of test [1] is Escherichia coli KCTC 1682.
Test [2] relates to Salmonella typhimurium KCTC 1926.
The subject of test [3] is Pseudomonas aeruginosa KCTC 1637.
The subject of test [4] is Listeria monocytogenes KCTC 3710.
In test [5] the test system is Bacillus subtilis KCTC 1918.
For test [6], the system named is Staphylococcus aureus KCTC 1621.
In test [7] the test system is Trichosporon beigelii KCTC 7707.
In test [8] the test system is Mycobacterium tuberculosis.
The subject of test [9] is Staphylococcus aureus ATCC 25923.
Test [10] deals with Klebsiella pneumoniae ST258.
Test [11] has as its system Escherichia coli ATCC 25922.
Test [12] has as its system Mycobacterium tuberculosis H37Rv.
The subject of test [13] is Pseudomonas aeruginosa ATCC 27853.
The subject of test [14] is Escherichia coli ATCC 11303.
Test [15] deals with Klebsiella pneumoniae CCRC 10694.
Test [16] has as its system Escherichia coli JM109.
The test system of test [17] is Salmonella typhimurium CCRC 12947.
The test system of test [18] is Streptococcus alactolyticus.
The test system of test [19] is Staphylococcus xylosus.
Test [20] concerns Staphylococcus aureus CCRC 12652.
For test [21], the system named is Citrobacter koseri.
The subject of test [22] is Staphylococcus aureus CCRC 15211.
Test [23] concerns Pseudomonas aeruginosa.
Test [24] concerns Salmonella enterica.
For test [25], the system named is Vibrio parahaemolyticus CCRC 10806.
Test [26] relates to Escherichia coli BL21.
The subject of test [27] is Candida parapsilosis ATCC 22019.
In test [28] the test system is Escherichia coli 37.
The test system of test [29] is Candida albicans ATCC 90028.
Test [30] relates to Escherichia coli 218.
The subject of test [31] is Klebsiella pneumoniae ATCC 700603.
In test [32] the test system is Candida albicans ATCC 2002.
Test [33] concerns Staphylococcus aureus 10.
In test [34] the test system is Enterococcus faecalis ATCC 29212.
The subject of test [35] is Shigella dysenteriae.
Test [36] concerns Enterobacter cloacae ATCC 13047.
The test system of test [37] is Staphylococcus aureus 37.
In test [38] the test system is Clavibacter michiganensis subsp. michiganensis KACC 20122.
Test [39] has as its system Vibrio cholerae.
Test [40] has as its system Staphylococcus aureus MTCC 9542.
In test [41] the test system is Bacillus subtilis MTCC 14416.
The test system of test [42] is Staphylococcus aureus ATCC 43300.
In test [43] the test system is Escherichia coli MG1655.

In brackets after ≈: the same amount, converted by molar mass. Several values for one entry are separate records, joined by “and”; a condition that tells them apart may be missing. Equal values may be shown once.

Results on 7 compounds are retold here after DBAASP.

With `CC[C@H](C)[C@H](NC(=O)[C@H](CCCCN)NC(=O)[C@H](CCCCN)NC(=O)[C@H](Cc1ccccc1)NC(=O)[C@H](CC(C)C)NC(=O)[C@H](CCCCN)NC(=O)[C@H](CCCCN)NC(=O)[C@H](CC(C)C)NC(=O)[C@H](CCCCN)NC(=O)[C@H](CCCCN)NC(=O)[C@@H](N)Cc1ccccc1)C(=O)N[C@@H](CC(C)C)C(=O)N[C@@H](CCCCN)C(=O)N[C@@H](CC(C)C)C(=O)N[C@@H](CCCCN)C(N)=O` [FKKLKKLFKKILKLK], the MIC was 8 µM (≈ 15.2 µg/mL) in [1]; 1 µM and 2 µM in [2]; 2 µM (≈ 3.81 µg/mL) in test [3]; 4 µM and 8 µM in test [4]; 8 µM and 16 µM in test [5]; 8 µM and 16 µM in test [6]. Further, the MIC in [7] is 1 µM and 2 µM.

In the case of `CC[C@H](C)[C@H](NC(=O)[C@H](CC(C)C)NC(=O)[C@H](CCCCN)NC(=O)[C@H](CC(C)C)NC(=O)[C@H](C)NC(=O)CNC(=O)[C@H](CCCCN)NC(=O)[C@H](C)NC(=O)[C@H](CC(C)C)NC(=O)[C@H](C)NC(=O)CNC(=O)[C@H](Cc1c[nH]c2ccccc12)NC(=O)[C@@H](N)Cc1ccccc1)C(=O)NCC(=O)N[C@@H](CO)C(=O)N[C@@H](CC(C)C)C(=O)N[C@@H](Cc1ccccc1)C(=O)N[C@@H](CO)C(=O)N[C@@H](CO)C(=O)N[C@@H](Cc1ccccc1)C(=O)N[C@@H](CO)C(=O)N[C@@H](CCCCN)C(=O)N[C@@H](CCCCN)C(=O)N[C@@H](CC(=O)O)C(=O)O` [FWGALAKGALKLIGSLFSSFSKKD], the MIC is 18.7 µM (≈ 48.1 µg/mL) in test [8]; 12.5 µM (≈ 32.2 µg/mL) in test [9]; 19.4 µM (≈ 50 µg/mL) in test [10]; 12.5 µM (≈ 32.2 µg/mL) in [11]; 18.7 µM (≈ 48.1 µg/mL) in [12]; over 19.4 µM in test [13].

Regarding `CC(C)C[C@H](NC(=O)CNC(=O)CN)C(=O)N[C@@H](CCCCN)C(=O)N[C@@H](CCCCN)C(=O)N[C@@H](CC(C)C)C(=O)NCC(=O)N[C@@H](CCCCN)C(=O)N[C@@H](CCCCN)C(=O)N[C@@H](CC(C)C)C(=O)N[C@@H](CCC(=O)O)C(=O)NCC(=O)N[C@@H](C)C(=O)NCC(=O)N[C@@H](CCCCN)C(=O)N[C@@H](CCCN=C(N)N)C(=O)N[C@H](C(=O)N[C@@H](Cc1ccccc1)C(=O)N[C@@H](CC(N)=O)C(=O)N[C@@H](C)C(=O)N[C@@H](C)C(=O)N[C@@H](CCC(=O)O)C(=O)N[C@@H](CCCCN)C(=O)N[C@@H](C)C(=O)N[C@@H](CC(C)C)C(=O)N1CCC[C@H]1C(=O)O)C(C)C` [GGLKKLGKKLEGAGKRVFNAAEKALP], the MIC in test [14] worked out at 11 µM (≈ 29.6 µg/mL).

Take `CC[C@H](C)[C@H](N)C(=O)N[C@@H](CCCCN)C(=O)N[C@@H](Cc1c[nH]c2ccccc12)C(=O)N[C@@H](CCCCN)C(=O)N[C@@H](C)C(=O)N[C@H](C(=O)N[C@@H](CC(C)C)C(=O)N[C@@H](CC(=O)O)C(=O)N[C@@H](C)C(=O)N[C@H](C(=O)N[C@@H](CCCCN)C(=O)N[C@@H](CCCCN)C(=O)N[C@H](C(=O)N[C@H](C(N)=O)[C@@H](C)CC)C(C)C)C(C)C)[C@@H](C)CC` [IKWKAILDAVKKVI]: the MIC in test [15] was 19.7 µM (≈ 32 µg/mL); in test [16], 4.92 µM (≈ 8 µg/mL); in test [17], 19.7 µM (≈ 32 µg/mL); in [18] it was 7.38 µM (≈ 12 µg/mL); in test [19], 1.23 µM (≈ 2 µg/mL); in [20], 19.7 µM (≈ 32 µg/mL). In addition, the MIC in test [21] was 2.46 µM (≈ 4 µg/mL); in test [22] it was at least 39.4 µM; in test [23], 118 µM (≈ 192 µg/mL); in [24], 19.7 µM (≈ 32 µg/mL); in test [25], 9.85 µM (≈ 16 µg/mL); in test [26] it was 4.92 µM (≈ 8 µg/mL).

Take `CC[C@H](C)[C@H](N)C(=O)N[C@@H](CC(N)=O)C(=O)N[C@@H](CC(C)C)C(=O)N[C@@H](CCCCN)C(=O)N[C@@H](C)C(=O)N[C@H](C(=O)N[C@@H](C)C(=O)N[C@@H](C)C(=O)N[C@@H](CC(C)C)C(=O)N[C@H](C(=O)N[C@@H](CCCCN)C(=O)N[C@@H](CCCCN)C(=O)N[C@@H](CC(C)C)C(=O)N[C@@H](CC(C)C)C(=O)O)C(C)C)[C@@H](C)CC` [INLKAIAALVKKLL]: the minimal inhibitory concentration (MIC) in [27] was 26.5 µM (≈ 40 µg/mL); in test [28], 26.5 µM (≈ 40 µg/mL); in test [29], at least 53.1 µM; in test [30], at least 53.1 µM; in test [31] it was 26.5 µM (≈ 40 µg/mL); in test [9] it was 13.3 µM (≈ 20 µg/mL). Besides, the MIC is at least 53.1 µM in [32]; 26.5 µM (≈ 40 µg/mL) in test [23]; at least 53.1 µM in test [33]; 53.1 µM (≈ 80 µg/mL) in test [34]; 13.3 µM (≈ 20 µg/mL) in test [35]; at least 53.1 µM in test [36]. Besides, the MIC was determined as 13.3 µM (≈ 20 µg/mL) in [37] and 26.5 µM (≈ 40 µg/mL) in [13].

Consider `NCCCC[C@H](N)C(=O)N[C@@H](Cc1c[nH]c2ccccc12)C(=O)N[C@@H](Cc1c[nH]c2ccccc12)C(=O)N[C@@H](Cc1c[nH]c2ccccc12)C(=O)N[C@@H](CCCN=C(N)N)C(=O)N[C@@H](Cc1c[nH]c2ccccc12)C(N)=O` [KWWWRW], for which, in test [38], the minimal inhibitory concentration (MIC) was 12.5 µM and 25 µM and 18.8 µM.

Take `CC[C@H](C)[C@H](NC(=O)[C@H](CCCCN)NC(=O)[C@@H]1CCCN1C(=O)[C@H](CC(C)C)NC(=O)[C@H](Cc1ccccc1)NC(=O)[C@H](CC(N)=O)NC(=O)[C@H](C)NC(=O)[C@H](C)NC(=O)[C@H](CC(C)C)NC(=O)CNC(=O)[C@H](C)NC(=O)[C@H](CC(C)C)NC(=O)[C@H](CC(C)C)NC(=O)[C@@H]1CCCN1C(=O)[C@@H](N)CC(C)C)C(=O)N[C@@H](Cc1ccccc1)C(=O)N[C@@H](CS)C(=O)N[C@@H](CCCCN)C(=O)N[C@H](C(=O)N[C@H](C(=O)N[C@@H](CCCN=C(N)N)C(=O)N[C@@H](CCCCN)C(N)=O)[C@@H](C)O)[C@@H](C)CC` [LPLLAGLAANFLPKIFCKITRK]: the minimal inhibitory concentration (MIC) in test [39] was 5.15 µM (≈ 12.5 µg/mL); in test [40], 2.57 µM (≈ 6.25 µg/mL); in test [41], 5.15 µM (≈ 12.5 µg/mL); in test [42], 20.6 µM (≈ 50 µg/mL); in test [43], 2.57 µM (≈ 6.25 µg/mL); in test [34], 41.2 µM (≈ 100 µg/mL).
